In US10221171B2, “Oxathiazole thiazolium Hsp 70 inhibitors” (THE REGENTS OF THE UNIVERSITY OF CALIFORNIA, priority 2015, dated 2019):
Read-outs that look alike come from different tables or passages of the source.

Legend:
Assay type in all cases: cell-based
MEF (C57BL/6) = experiment: MTT cell viability assay, MEF (C57BL/6); conditions: Mus musculus
Protocol: (§1) Cells were then treated with compound at various concentrations in 0.2 mL media. After the 72-hour incubation period, cells were washed in PBS (3×100 μL), and 10 μL MTT reagent was added with 100 μL fresh media. Cells were then incubated for 4 hr in a humidified chamber at 37° C. with 5% CO2. Insoluble formazan crystals were solubilized by addition of 0.1 mL detergent solution (4 hr at room temp., dark). Resulting colored solutions were then quantified at an absorbance of 570 nm.

MDA-MB-231 = experiment: MTT cell viability assay, MDA-MB-231; conditions: Homo sapiens
Protocol: as §1

MCF-7 = experiment: MTT cell viability assay, MCF-7; conditions: Homo sapiens, MTT, 72-hour incubation, read-out: IC50/μM MCF-7
Protocol: as §1

[1] = MTT, 72-hour incubation, read-out: IC50/μM MEF (C57BL/6)
[2] = 72 h, read-out: IC50/μM MEF (C57BL/6), MTT, 72-hour incubation
[3] = MDA-MB-231, 72 h, 72-hour incubation

IC50 (MDA-MB-231; MDA-MB-231, 72-hour incubation) | IC50 (MCF-7; MCF7) | Structure (SMILES) | IC50 (MEF (C57BL/6); [1]) | IC50 (MEF (C57BL/6); [2]) | IC50 (MDA-MB-231; [3]) | IC50 (MCF-7; MCF7, 72 h)
0.21 ± 0.01 µM | 0.28 ± 0.02 µM | CCn1c(=O)/c(=C2\Sc3cc(SC)ccc3N2C)s/c1=C\c1scc[n+]1Cc1c(C)cccc1C [JG-355] | 1.5 ± 0.1 µM | – | – | –
0.14 ± 0.01 µM | 0.25 ± 0.01 µM | CCn1c(=O)/c(=C2\Sc3cc(SC)ccc3N2C)s/c1=C\c1scc[n+]1Cc1ccccc1C(=O)OC [JG-357] | 3.5 ± 0.2 µM | – | – | –
0.11 ± 0.01 µM | 0.22 ± 0.01 µM | CCn1c(=O)/c(=C2\Sc3cc(SC)ccc3N2C)s/c1=C\c1scc[n+]1Cc1ccccc1OC [JG-358] | 1.6 ± 0.1 µM | – | – | –
0.25 ± 0.01 µM | 0.21 ± 0.01 µM | CCn1c(=O)/c(=C2\Sc3cc(SC)ccc3N2C)s/c1=C\c1scc[n+]1Cc1cc(C)sc1C [JG-359] | 1.6 ± 0.1 µM | – | – | –
2.3 ± 0.1 µM | 1.3 ± 0.1 µM | CCn1c(=O)/c(=C2\Sc3cc(C#N)ccc3N2C)s/c1=C\c1scc[n+]1Cc1ccccc1 [JG-360] | 2.3 ± 0.1 µM | – | – | –
– | – | CCn1c(=O)/c(=C2\Sc3ccc(C)cc3N2C)s/c1=C\c1scc[n+]1Cc1c(Cl)cccc1Cl [JG-361] | – | 0.55 ± 0.03 µM | 0.054 ± 0.006 µM | 0.088 ± 0.008 µM
0.23 ± 0.01 µM | 0.19 ± 0.02 µM | CCn1c(=O)/c(=C2\Sc3ccc(C)cc3N2C)s/c1=C\c1scc[n+]1Cc1c(C)cccc1C [JG-362] | 2.3 ± 0.1 µM | – | – | –
0.084 ± 0.012 µM | 0.067 ± 0.005 µM | CCn1c(=O)/c(=C2\Sc3ccc(C)cc3N2C)s/c1=C\c1scc[n+]1Cc1ccccc1SC(F)(F)F [JG-363] | 2.1 ± 0.1 µM | – | – | –
0.11 ± 0.01 µM | 0.15 ± 0.01 µM | CCn1c(=O)/c(=C2\Sc3ccc(C)cc3N2C)s/c1=C\c1scc[n+]1Cc1ccccc1C(=O)OC [JG-364] | 2.3 ± 0.2 µM | – | – | –
0.16 ± 0.02 µM | 0.11 ± 0.01 µM | CCn1c(=O)/c(=C2\Sc3ccc(C)cc3N2C)s/c1=C\c1scc[n+]1Cc1ccccc1Cl [JG-365] | 0.42 ± 0.02 µM | – | – | –
0.22 ± 0.02 µM | 0.19 ± 0.01 µM | CCn1c(=O)/c(=C2\Sc3ccc(C)cc3N2C)s/c1=C\c1scc[n+]1Cc1ccccc1C [JG-366] | 0.99 ± 0.04 µM | – | – | –
0.22 ± 0.02 µM | 0.12 ± 0.01 µM | CCn1c(=O)/c(=C2\Sc3ccc(C)cc3N2C)s/c1=C\c1scc[n+]1Cc1ccccc1Br [JG-367] | 0.54 ± 0.02 µM | – | – | –
– | – | CCn1c(=O)/c(=C2\Sc3ccc(C)cc3N2C)s/c1=C\c1scc[n+]1Cc1ccccc1OC(F)(F)F [JG-368] | – | 1.4 ± 0.1 µM | 0.18 ± 0.01 µM | 0.089 ± 0.006 µM
0.12 ± 0.01 µM | 0.063 ± 0.004 µM | CCn1c(=O)/c(=C2\Sc3ccc(C)cc3N2C)s/c1=C\c1scc[n+]1Cc1ccsc1C(=O)OC [JG-369] | 0.44 ± 0.02 µM | – | – | –
0.18 ± 0.02 µM | 0.22 ± 0.01 µM | CCn1c(=O)/c(=C2\Sc3ccc(C)cc3N2C)s/c1=C\c1scc[n+]1Cc1occc1C(=O)OC [JG-370] | 1.2 ± 0.1 µM | – | – | –
0.07 ± 0.01 µM | 0.069 ± 0.004 µM | CCn1c(=O)/c(=C2\Sc3cc(C)ccc3N2C)s/c1=C\c1scc[n+]1Cc1c(Cl)cccc1Cl [JG-371] | 0.68 ± 0.02 µM | – | – | –
0.68 ± 0.16 µM | 0.18 ± 0.01 µM | CCn1c(=O)/c(=C2\Sc3cc(C)ccc3N2C)s/c1=C\c1scc[n+]1Cc1c(C)cccc1C [JG-372] | 0.67 ± 0.01 µM | – | – | –
0.22 ± 0.03 µM | 0.095 ± 0.005 µM | CCn1c(=O)/c(=C2\Sc3cc(C)ccc3N2C)s/c1=C\c1scc[n+]1Cc1ccccc1SC(F)(F)F [JG-373] | 0.44 ± 0.03 µM | – | – | –
0.15 ± 0.01 µM | 0.16 ± 0.01 µM | CCn1c(=O)/c(=C2\Sc3cc(C)ccc3N2C)s/c1=C\c1scc[n+]1Cc1ccccc1C(=O)OC [JG-374] | 0.69 ± 0.03 µM | – | – | –
– | – | CCn1c(=O)/c(=C2\Sc3cc(C)ccc3N2C)s/c1=C\c1scc[n+]1Cc1ccccc1OC [JG-375] | – | 0.96 ± 0.03 µM | 0.082 ± 0.01 µM | 0.071 ± 0.006 µM
– | – | CCn1c(=O)/c(=C2\Sc3ccc(OC)cc3N2C)s/c1=C\c1scc[n+]1Cc1ccccc1 [JG-376] | 1 ± 0.1 µM | – | 0.36 ± 0.05 µM | 0.37 ± 0.02 µM
0.19 ± 0.03 µM | 0.12 ± 0.01 µM | CCn1c(=O)/c(=C2\Sc3cc(OC)ccc3N2C)s/c1=C\c1scc[n+]1CCc1ccccc1C(F)(F)F [JG-377] | > 10 µM | – | – | –
0.14 ± 0.02 µM | 0.13 ± 0.01 µM | CCn1c(=O)/c(=C2\Sc3cc(C)ccc3N2C)s/c1=C\c1scc[n+]1CCc1ccccc1C(F)(F)F [JG-378] | 0.87 ± 0.03 µM | – | – | –
0.2 ± 0.03 µM | 0.18 ± 0.01 µM | CCn1c(=O)/c(=C2\Sc3cc(OC)ccc3N2C)s/c1=C\c1scc[n+]1CCc1ccccc1Cl [JG-379] | 0.9 ± 0.01 µM | – | – | –
0.25 ± 0.03 µM | 0.2 ± 0.02 µM | CCn1c(=O)/c(=C2\Sc3cc(C)ccc3N2C)s/c1=C\c1scc[n+]1CCc1ccccc1Cl [JG-380] | 0.94 ± 0.03 µM | – | – | –

IC50 (MDA-MB-231; MDA-MB-231, 72-hour incubation) | IC50 (MCF-7; MCF7) | Structure (SMILES) | IC50 (MEF (C57BL/6); [1]) | IC50 (MEF (C57BL/6); [2]) | IC50 (MDA-MB-231; [3]) | IC50 (MCF-7; MCF7, 72 h)
0.62 ± 0.05 µM | 0.55 ± 0.03 µM | CCn1c(=O)/c(=C2\Sc3cc(Cl)ccc3N2C)s/c1=C\c1scc[n+]1CCc1cccc(Cl)c1 [JG-381] | 2.3 ± 0.2 µM | – | – | –
0.46 ± 0.06 µM | 0.59 ± 0.03 µM | CCn1c(=O)/c(=C2\Sc3cc(C)ccc3N2C)s/c1=C\c1scc[n+]1CCc1cccc(Cl)c1 [JG-382] | 1.2 ± 0.1 µM | – | – | –
0.74 ± 0.08 µM | 0.78 ± 0.06 µM | CCn1c(=O)/c(=C2\Sc3cc(Cl)ccc3N2C)s/c1=C\c1scc[n+]1CCc1cccc(C(F)(F)F)c1 [JG-383] | 2.3 ± 0.2 µM | – | – | –
0.68 ± 0.1 µM | 0.62 ± 0.08 µM | CCn1c(=O)/c(=C2\Sc3cc(C)ccc3N2C)s/c1=C\c1scc[n+]1CCc1cccc(C(F)(F)F)c1 [JG-384] | 1.1 ± 0.1 µM | – | – | –
0.61 ± 0.05 µM | 0.69 ± 0.05 µM | CCn1c(=O)/c(=C2\Sc3cc(Cl)ccc3N2C)s/c1=C\c1scc[n+]1CCc1ccc(Cl)cc1 [JG-385] | 4.4 ± 0.3 µM | – | – | –
0.28 ± 0.03 µM | 0.53 ± 0.05 µM | CCn1c(=O)/c(=C2\Sc3cc(C)ccc3N2C)s/c1=C\c1scc[n+]1CCc1ccc(Cl)cc1 [JG-386] | 1.7 ± 0.1 µM | – | – | –
0.74 ± 0.04 µM | 0.78 ± 0.09 µM | CCn1c(=O)/c(=C2\Sc3cc(Cl)ccc3N2C)s/c1=C\c1scc[n+]1CCc1ccc(C(F)(F)F)cc1 [JG-387] | > 10 µM | – | – | –
0.62 ± 0.07 µM | 0.5 ± 0.04 µM | CCn1c(=O)/c(=C2\Sc3cc(C)ccc3N2C)s/c1=C\c1scc[n+]1CCc1ccc(C(F)(F)F)cc1 [JG-388] | 1.6 ± 0.1 µM | – | – | –
0.27 ± 0.01 µM | 0.86 ± 0.08 µM | CCn1c(=O)/c(=C2\Sc3cc(Cl)ccc3N2C)s/c1=C\c1scc[n+]1CCc1ccccc1OC [JG-389] | 2.4 ± 0.1 µM | – | – | –
0.12 ± 0.01 µM | 0.31 ± 0.04 µM | CCn1c(=O)/c(=C2\Sc3cc(C)ccc3N2C)s/c1=C\c1scc[n+]1CCc1ccccc1OC [JG-390] | 1.2 ± 0.1 µM | – | – | –
0.26 ± 0.01 µM | 0.68 ± 0.04 µM | CCn1c(=O)/c(=C2\Sc3cc(Cl)ccc3N2C)s/c1=C\c1scc[n+]1CCc1ccccc1C [JG-391] | 2.5 ± 0.2 µM | – | – | –
0.19 ± 0.02 µM | 0.35 ± 0.03 µM | CCn1c(=O)/c(=C2\Sc3cc(C)ccc3N2C)s/c1=C\c1scc[n+]1CCc1ccccc1C [JG-392] | 1.2 ± 0.1 µM | – | – | –
0.21 ± 0.01 µM | 0.68 ± 0.13 µM | CCn1c(=O)/c(=C2\Sc3cc(OC)ccc3N2C)s/c1=C\c1scc[n+]1CCc1cccc(C(F)(F)F)c1 [JG-393] | 2.1 ± 0.1 µM | – | – | –
0.24 ± 0.01 µM | 0.56 ± 0.06 µM | CCn1c(=O)/c(=C2\Sc3cc(OC)ccc3N2C)s/c1=C\c1scc[n+]1CCc1cccc(Cl)c1 [JG-394] | 2.3 ± 0.1 µM | – | – | –
0.42 ± 0.03 µM | 0.51 ± 0.06 µM | CCn1c(=O)/c(=C2\Sc3cc(OC)ccc3N2C)s/c1=C\c1scc[n+]1CCc1ccc(C(F)(F)F)cc1 [JG-395] | 2.9 ± 0.1 µM | – | – | –
0.2 ± 0.03 µM | 1.7 ± 0.3 µM | CCn1c(=O)/c(=C2\Sc3cc(OC)ccc3N2C)s/c1=C\c1scc[n+]1CCc1ccc(Cl)cc1 [JG-396] | 4 ± 0.2 µM | – | – | –
0.083 ± 0.007 µM | 0.08 ± 0.008 µM | CCn1c(=O)/c(=C2\Sc3cc(OC)ccc3N2C)s/c1=C\c1scc[n+]1CCc1ccccc1OC [JG-397] | 1.3 ± 0.1 µM | – | – | –
0.14 ± 0.01 µM | 0.24 ± 0.02 µM | CCn1c(=O)/c(=C2\Sc3cc(OC)ccc3N2C)s/c1=C\c1scc[n+]1CCc1ccccc1C [JG-398] | 1.1 ± 0.1 µM | – | – | –
0.11 ± 0.01 µM | 0.2 ± 0.01 µM | CCn1c(=O)/c(=C2\Sc3ccc(OC)cc3N2C)s/c1=C\c1scc[n+]1Cc1ccccc1SC(F)(F)F [JG-399] | 3.1 ± 0.2 µM | – | – | –
– | – | CCn1c(=O)/c(=C2\Sc3ccc(OC)cc3N2C)s/c1=C\c1scc[n+]1Cc1ccccc1OC(F)(F)F [JG-400] | – | 2.2 ± 0.1 µM | 0.16 ± 0.01 µM | 0.16 ± 0.02 µM
0.11 ± 0.01 µM | 0.45 ± 0.04 µM | CCn1c(=O)/c(=C2\Sc3ccc(OC)cc3N2C)s/c1=C\c1scc[n+]1Cc1ccccc1C(F)(F)F [JG-401] | 0.27 ± 0.03 µM | – | – | –
0.23 ± 0.01 µM | 0.45 ± 0.04 µM | CCn1c(=O)/c(=C2\Sc3ccc(OC)cc3N2C)s/c1=C\c1scc[n+]1Cc1ccsc1C(=O)OC [JG-402] | 0.82 ± 0.06 µM | – | – | –
0.2 ± 0.01 µM | 0.7 ± 0.08 µM | CCn1c(=O)/c(=C2\Sc3ccc(OC)cc3N2C)s/c1=C\c1scc[n+]1Cc1c(Cl)cccc1Cl [JG-403] | 1.2 ± 0.1 µM | – | – | –
0.3 ± 0.03 µM | 0.79 ± 0.1 µM | CCn1c(=O)/c(=C2\Sc3ccc(OC)cc3N2C)s/c1=C\c1scc[n+]1Cc1ccccc1OC [JG-404] | 1.3 ± 0.1 µM | – | – | –
